According to PubChem BioAssay (NCI):
Values joined by “and” are separate entries in the source; they are usually repeats but may differ in a detail not shown here. Equal values may be shown once.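 Compound exposure: 48 hours, 5 concentrations, 96-well plates. GI50 is the concentration that inhibits growth by half. Definition used: TGI = concentration required for complete inhibition of growth.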

What was measured:
Experiment in all cases: NCI tumour cell line growth inhibition, 48 h
A498 renal = test system: A498 renal
MOLT-4 leukemia = test system: MOLT-4 leukemia
NCI-H23 lung = test system: NCI-H23 lung
NCI-H522 lung = test system: NCI-H522 lung
OVCAR-5 ovarian = test system: OVCAR-5 ovarian
OVCAR-8 ovarian = test system: OVCAR-8 ovarian
SF-295 CNS = test system: SF-295 CNS
SK-MEL-28 melanoma = test system: SK-MEL-28 melanoma
SW-620 colon = test system: SW-620 colon
TK-10 renal = test system: TK-10 renal

Compound | TGI (A498 renal) | TGI (MOLT-4 leukemia) | TGI (NCI-H23 lung) | TGI (NCI-H522 lung) | TGI (OVCAR-5 ovarian) | TGI (OVCAR-8 ovarian) | TGI (SF-295 CNS) | TGI (SK-MEL-28 melanoma) | TGI (SW-620 colon) | TGI (TK-10 renal) | GI50 (A498 renal) | GI50 (MOLT-4 leukemia) | GI50 (NCI-H23 lung) | GI50 (NCI-H522 lung) | GI50 (OVCAR-5 ovarian) | GI50 (OVCAR-8 ovarian) | GI50 (SF-295 CNS) [µM] | GI50 (SK-MEL-28 melanoma) | GI50 (SW-620 colon) | GI50 (TK-10 renal)
Cc1ccc(-c2cc(-c3ccccc3)c(C#N)c(=O)n2C2OC(CO)C(O)C(O)C2O)cc1 (stereo not given) | > 100 µM | 85.3 µM | > 100 µM | > 100 µM | > 100 µM | > 100 µM | > 100 µM | > 100 µM | > 100 µM | > 100 µM | – | – | – | – | – | – | – | – | – | –
Cc1cccc(C)c1NC(=O)C1C(=O)N(c2c(C)cccc2C)C(=O)/C1=N\NC(N)=S (stereo not given) | > 100 µM | > 100 µM | > 100 µM | > 100 µM | > 100 µM | > 100 µM | > 100 µM | > 100 µM | > 100 µM | > 100 µM | – | – | – | – | – | – | – | – | – | –
CC1C(=O)OCC2=CCN3CCC(OC(=O)C(C)C1(C)O)C23 (stereo not given) | > 100 µM | > 100 µM | > 100 µM | > 100 µM | > 100 µM | > 100 µM | > 100 µM | > 100 µM | > 100 µM | > 100 µM | – | – | – | – | – | – | – | – | – | –
CCCOc1ccc2nc(NC(=O)OC)[nH]c2c1 | 1.46 µM | > 100 µM | > 100 µM | 2.28 µM | > 100 µM | > 100 µM | > 100 µM | > 100 µM | > 100 µM | > 100 µM | 0.162 µM | 0.426 µM | 0.34 µM | 0.235 µM | 0.441 µM | 0.485 µM | 0.215 | 0.285 µM | 0.133 µM | > 25.5 µM
NC(N)=NCCC1OC(=O)C2=C1c1c(O)ccc3nccc(c13)O2 (stereo not given) | > 100 µM | > 100 µM | > 100 µM | > 100 µM | > 100 µM | > 100 µM | > 100 µM | > 100 µM | > 100 µM | > 100 µM | > 100 µM | > 100 µM | > 100 µM | > 100 µM | > 100 µM | > 100 µM | > 100 | > 100 µM | > 100 µM | > 100 µM
COC(=O)[C@]12CCC(C)[C@H](C)[C@H]1C1=CCC3[C@@]4(C)CC[C@H](OC(C)=O)C(C)(C)C4CC[C@@]3(C)C1(C)C(O)C2 (stereo not given in full) | > 100 µM | > 100 µM | > 100 µM | > 100 µM | > 100 µM | > 100 µM | > 100 µM | > 100 µM | > 100 µM | > 100 µM | – | – | – | – | – | – | – | – | – | –
CCOc1cccc(/C=N/NC(=O)C(=O)Nc2cccc(C(F)(F)F)c2)c1O | 76.2 µM | 22 µM | > 100 µM | > 100 µM | > 100 µM | > 100 µM | 7.97 µM | > 100 µM | > 100 µM | > 100 µM | 8.85 µM | 1.35 µM | 4.57 µM | 2.29 µM | 5.67 µM | 1.29 µM | 0.372 | 5.51 µM | 3.09 µM | 4.3 µM
C=CC(=O)Nc1cc2c(Nc3ccc(F)c(Cl)c3)ncnc2cc1OCCCN1CCOCC1 | 2.51 µM and 5.15 µM | 5.18 µM and > 9.25 µM | 3.94 µM and > 6.12 µM | 2.37 µM and 1.98 µM | 16.3 µM and > 10 µM | 6.67 µM and > 10 µM | 17.4 µM and > 10 µM | 3.21 µM and > 10 µM | 3.59 µM and > 6.13 µM | 9.6 µM and 6.78 µM | 0.357 µM and 0.681 µM | 1.85 µM and 2.87 µM | 1.82 µM and 2.39 µM | 0.546 µM and 0.119 µM | 0.879 µM and 5.82 µM | 1.77 µM and 2.54 µM | 4.12 | 1.67 µM and > 6.85 µM | 1.81 µM and 2.62 µM | < 0.01 µM and 0.00217 µM
COc1cc2c(=O)n(CCN)c3c4cc5c(cc4ccc3c2cc1OC)OCO5 | 2.64 µM | 0.863 µM | 2.51 µM | 1.83 µM | 2.59 µM | 3.91 µM | 4.08 µM | 6.17 µM | 2.07 µM | 3.28 µM | 1.24 µM | 0.0671 µM | 0.683 µM | 0.167 µM | 1.16 µM | 0.988 µM | 0.306 | 2.09 µM | 0.23 µM | 1.62 µM
CC[C@]1(O)C(=O)OCc2c1cc1n(c2=O)Cc2cc3c(N)cccc3nc2-1 | > 100 µM | > 100 µM | > 100 µM | > 100 µM | > 100 µM | > 100 µM | > 100 µM | > 100 µM | > 100 µM | > 100 µM | – | – | – | – | – | – | – | – | – | –
Cc1[nH]nc(C(=O)n2nc(N)c3ccccc32)c1[N+](=O)[O-] | > 100 µM | > 100 µM | > 100 µM | > 100 µM | > 100 µM | > 100 µM | > 100 µM | > 100 µM | > 100 µM | > 100 µM | > 100 µM | > 89.4 µM | > 100 µM | > 100 µM | > 100 µM | > 100 µM | > 100 | > 100 µM | > 100 µM | > 100 µM
Cc1cc(C)c(C(=O)c2no[n+]([O-])c2C(=O)c2c(C)cc(C)c(Br)c2C)c(C)c1Br | 32.6 µM | 20.2 µM | 24.3 µM | 23.4 µM | 33 µM | 27.1 µM | 33.3 µM | 27.5 µM | 26.9 µM | 26.5 µM | – | – | – | – | – | – | – | – | – | –
COc1ccc(C2=NN(C=O)C(c3cccc(Nc4ccnc5cc(Cl)ccc45)c3)C2)cc1 (stereo not given) | 9.26 µM | 11.9 µM | > 100 µM | 12.7 µM | > 100 µM | 27.6 µM | 23 µM | 25.3 µM | 13.2 µM | 20.2 µM | 1.35 µM | 2.37 µM | 1.87 µM | 1.33 µM | 11.3 µM | 3.29 µM | 1.24 | 8.12 µM | 1.73 µM | 4.24 µM
COc1ccc2cc(-c3c(-c4ccncc4)nc(-c4ccc(S(C)(=O)=O)cc4C)n3C)ccc2c1 | > 25 µM | > 25 µM | > 25 µM | 19 µM | > 25 µM | > 25 µM | > 25 µM | 24.9 µM | > 25 µM | 23.2 µM | 6.31 µM | 6.91 µM | 7.99 µM | 4.45 µM | 14.7 µM | 9.01 µM | 7.83 | 9.28 µM | 9.68 µM | 5.82 µM
COc1ccc(-c2oc3c(OC)c(OC)c(OC)c(OC)c3c(=O)c2OC)cc1OC | > 100 µM | > 100 µM | > 100 µM | 49.4 µM | > 100 µM | 93.6 µM | > 100 µM | > 100 µM | > 100 µM | > 100 µM | – | – | – | – | – | – | – | – | – | –
